Data taken from the NIST ThermoML archive (doi:10.1021/acs.jced.8b00513).
± gives the expanded uncertainty stated by the source.

Details: 101.33 kPa, Liquid, Vibrating tube method

mass density (323.15 K): 988.035 ± 1 kg/m3
mass density (328.15 K): 985.693 ± 1 kg/m3
mass density (333.15 K): 983.196 ± 0.98 kg/m3
mass density (338.15 K): 980.551 ± 0.98 kg/m3
mass density (343.15 K): 977.765 ± 0.98 kg/m3
Compound: O [water]
